One assay has as its target T1, KCNQ2/3 channels (Homo sapiens, UniProt O43525+O43526).
T1 construct: expressed in transfected cells; host or cells: CHO-K1
Put plainly: Fluorescence assay using a voltage-sensitive dye. Particulars: 10 μmol test substance; CHO-K1 cells expressing KCNQ2/3 channels; agonistic activity; read-out: % Stimulation [10 μmol] Average. Type of assay: cell-based. Here is the method:
Fluorescence Assay Using a Voltage-Sensitive Dye
Human CHO-K1 cells expressing KCNQ2/3 channels are cultivated adherently at 37° C., 5% CO2 and 95% humidity in cell culture bottles (e.g. 80 cm^2 TC flasks, Nunc) with MEM Alpha Medium (1×, liquid, Invitrogen, #22571), 10% foetal calf serum (FCS) (Invitrogen, #10270-106, heat-inactivated) and the necessary selection antibiotics. Before being spread out for the measurements, the cells are washed with a 1×DPBS buffer without Ca^2+/Mg^2+ (e.g. Invitrogen, #14190-094) and detached from the bottom of the culture vessel by means of Accutase (PAA Laboratories, #L11-007) (incubation with Accutase for 15 min at 37° C.). The cell count then present is determined using a CASY™ cell counter (TCC model, Schärfe System) in order subsequently to apply 20,000 cells/well/100 μl of the described nutrient medium to 96-well measuring plates of the Corning™ CellBIND™ type (flat clear-bottom black polystyrene microplates, #3340). Incubation is then carried out for one hour at room temperature, without gassing or adjusting the humidity, followed by incubation for 24 hours at 37° C., 5% CO2 and 95% humidity.
The voltage-sensitive fluorescent dye from the Membrane Potential Assay Kit (Red bulk format part R8123 for FLIPR, Molecular Devices™) is prepared by dissolving the contents of a vessel of Membrane Potential Assay Kit Red Component A in 200 ml of extracellular buffer (ES buffer, 120 mM NaCl, 1 mM KCl, 10 mM HEPES, 2 mM CaCl2, 2 mM MgCl2, 10 mM glucose; pH 7.4). After removal of the nutrient medium, the cells are washed with 200 μl of ES buffer, then covered with a layer of 100 μl of the dye solution prepared above and incubated for 45 min at room temperature with exclusion of light.
The fluorescence measurements are carried out with a BMG Labtech FLUOstar™ or BMG Labtech POLARstar™ instrument (525 nm excitation, 560 nm emission, bottom-read mode). After incubation of the dye, 50 μl of the substances to be tested in the desired concentrations, or 50 μl of ES buffer for control purposes, are introduced into separate cavities of the measuring plate and incubated for 30 min at room temperature whilst being shielded from light. The fluorescence intensity of the dye is then measured for 5 min and the fluorescence value F1 of each well is thus determined at a given, constant time. 15 μl of a […] KCl solution ([…]) are then added to each well. The change in fluorescence is subsequently measured until all relevant measured values have been obtained (mainly 5-30 min). At a given time after KCl application, a fluorescence value F2 is determined, in this case at the time of the fluorescence peak.
For calculation, the fluorescence intensity F2 is compared with the fluorescence intensity F1, and the agonistic activity of the target compound on the potassium channel is determined therefrom. F2 and F1 are calculated as follows:
[formula] In order to determine whether a substance has an agonistic activity,
[formula] for example, can be compared with
[formula] of control cells.
[formula] is determined by adding to the reaction batch only the buffer solution instead of the substance to be tested, determining the value F1K of the fluorescence intensity, adding the potassium ions as described above and measuring a value F2K of the fluorescence intensity. Then F2K and F1K are calculated as follows:
[formula] A substance has an agonistic activity on the potassium channel when
[formula] is greater than
[formula] Independently of the comparison of
[formula] it is also possible to conclude that a target compound has an agonistic activity if an increase in
[formula] is to be observed as the dosage of the target compound increases. Calculations of EC50 and IC50 values are carried out with the aid of Prism 4 software (GraphPad Software™).
As for `O=C(c1cn2c(n1)CCC(c1ccccc1)C2)N1CCC(Cc2ccccc2)CC1` (stereo not shown) [Compound 1, (4-Benzylpiperidin-1-yl)(6-phenyl-5,6,7,8-tetrahydroimidazo[1,2-a]pyridin-2-yl)methanone], the activation at 10 µM was 16.2%.
Same read-out and setting: in the case of `O=C(c1cn2c(n1)CCC(c1ccccc1)C2)N(CCc1ccccc1)Cc1ccccc1` (stereo not shown) [Compound 2, N-Benzyl-N-phenethyl-6-phenyl-5,6,7,8-tetrahydroimidazo[1,2-a]pyridine-2-carboxamide] it was 20%; in that of `CC1(C)CC2CC(C)(CN2C(=O)c2cn3c(n2)CCC(c2ccccc2)C3)C1` (stereo not shown) [Compound 3, (6-Phenyl-5,6,7,8-tetrahydroimidazo[1,2-a]pyridin-2-yl)(1,3,3-trimethyl-6-azabicyclo[3.2.1]octan-6-yl)methanone], 16.7%.
Same read-out and setting: in the case of `CC1(C)CC2CC(C)(CN2C(=O)c2cn3c(n2)CCC(c2cccc(F)c2)C3)C1` (stereo not shown) [Compound 4, (6-(3-Fluorophenyl)-5,6,7,8-tetrahydroimidazo[1,2-a]pyridin-2-yl)(1,3,3-trimethyl-6-azabicyclo[3.2.1]octan-6-yl)methanone] it was 20.7%; in that of `COc1c(C)cc(C2CCc3nc(C(=O)NCc4ccccc4)cn3C2)cc1C` (stereo not shown) [Compound 5, N-Benzyl-6-(4-methoxy-3,5-dimethylphenyl)-5,6,7,8-tetrahydroimidazo[1,2-a]pyridine-2-carboxamide], 15.5%.
Same read-out and setting: in the case of `COc1ccc(F)cc1C1CCc2nc(C(=O)N3CCN(c4cccc(C(F)(F)F)c4)CC3)cn2C1` (stereo not shown) [Compound 7, (6-(5-Fluoro-2-methoxyphenyl)-5,6,7,8-tetrahydroimidazo[1,2-a]pyridin-2-yl)(4-(3-(trifluoromethyl)phenyl)piperazin-1-yl)methanone] it was 30%; in that of `COc1ccc(F)cc1C1CCc2nc(C(=O)N3CCC(Cc4ccccc4)CC3)cn2C1` (stereo not shown) [Compound 8, (4-Benzylpiperidin-1-yl)(6-(5-fluoro-2-methoxyphenyl)-5,6,7,8-tetrahydroimidazo[1,2-a]pyridin-2-yl)methanone], 29.1%; in that of `COc1ccccc1N1CCN(C(=O)c2cn3c(n2)CCC(c2cc(C)c(OC)c(C)c2)C3)CC1` (stereo not shown) [Compound 10, (6-(4-Methoxy-3,5-dimethylphenyl)-5,6,7,8-tetrahydroimidazo[1,2-a]pyridin-2-yl)(4-(2-methoxyphenyl)piperazin-1-yl)methanone], 15.7%.
In the case of `CCc1ccc(C2CCc3nc(C(=O)N4CCC(Cc5ccccc5)CC4)cn3C2)cc1` (stereo not shown) [Compound 11, (4-Benzylpiperidin-1-yl)(6-(4-ethylphenyl)-5,6,7,8-tetrahydroimidazo[1,2-a]pyridin-2-yl)methanone], the activation at 10 µM is 38.5%.
Still for that read-out and setting: in the case of `COc1ccc(OC)c(C2CCc3nc(C(=O)N4CC5(C)CC4CC(C)(C)C5)cn3C2)c1` (stereo not shown) [Compound 12, (6-(2,5-Dimethoxyphenyl)-5,6,7,8-tetrahydroimidazo[1,2-a]pyridin-2-yl)(1,3,3-trimethyl-6-azabicyclo[3.2.1]octan-6-yl)methanone] it was 51.8%; in that of `Cc1cc(C2CCc3nc(C(=O)N4CCN(c5ccccc5F)CC4)cn3C2)ccc1F` (stereo not shown) [Compound 13, (6-(4-Fluoro-3-methylphenyl)-5,6,7,8-tetrahydroimidazo[1,2-a]pyridin-2-yl)(4-(2-fluorophenyl)piperazin-1-yl)methanone], 18%; in that of `Cc1cc(C2CCc3nc(C(=O)NC(C)c4ccccc4)cn3C2)ccc1F` (stereo not shown) [Compound 14, 6-(4-Fluoro-3-methylphenyl)-N-(1-phenylethyl)-5,6,7,8-tetrahydroimidazo[1,2-a]pyridine-2-carboxamide], 24.7%.
`CCCCCNC(=O)c1cn2c(n1)CCC(c1cc(C)c(OC)c(C)c1)C2` (stereo not shown) [Compound 15, 6-(4-Methoxy-3,5-dimethylphenyl)-N-pentyl-5,6,7,8-tetrahydroimidazo[1,2-a]pyridine-2-carboxamide]: the activation at 10 µM worked out at 16.8%.
On the same count and under the same terms, to `COc1c(C)cc(C2CCc3nc(C(=O)NCc4cccc(C(F)(F)F)c4)cn3C2)cc1C` (stereo not shown) [Compound 17, 6-(4-Methoxy-3,5-dimethylphenyl)-N-(3-(trifluoromethyl)benzyl)-5,6,7,8-tetrahydroimidazo[1,2-a]pyridine-2-carboxamide] belongs 18.5%; to `CCC(C)NC(=O)c1cn2c(n1)CCC(c1ccc(Oc3ccccc3)cc1)C2` (stereo not shown) [Compound 18, N-sec-Butyl-6-(4-phenoxyphenyl)-5,6,7,8-tetrahydroimidazo[1,2-a]pyridine-2-carboxamide], 18.6%; to `CCOC(=O)C1CCCN(C(=O)c2cn3c(n2)CCC(c2ccc(Oc4ccccc4)cc2)C3)C1` (stereo not shown) [Compound 22, Ethyl 1-(6-(4-phenoxyphenyl)-5,6,7,8-tetrahydroimidazo[1,2-a]pyridine-2-carbonyl)piperidine-3-carboxylate], 18%.

Staying with this assay, now noted: CHO-K1 cells expressing KCNQ2/3 channels; agonistic activity.
For the compound `COc1c(C)cc(C2CCc3nc(C(=O)N4CCN(c5ccccc5F)CC4)cn3C2)cc1C` (stereo not shown) [Compound 6, (4-(2-Fluorophenyl)piperazin-1-yl)(6-(4-methoxy-3,5-dimethylphenyl)-5,6,7,8-tetrahydroimidazo[1,2-a]pyridin-2-yl)methanone], the EC50 was 7.4 µM.
On the same count and under the same terms, to `COc1ccc(F)cc1C1CCc2nc(C(=O)N3CC4(C)CC3CC(C)(C)C4)cn2C1` (stereo not shown) [Compound 9, (6-(5-Fluoro-2-methoxyphenyl)-5,6,7,8-tetrahydroimidazo[1,2-a]pyridin-2-yl)(1,3,3-trimethyl-6-azabicyclo[3.2.1]octan-6-yl)methanone] belongs 11.9 µM; to `CCCCCCNC(=O)c1cn2c(n1)CCC(c1cc(C)c(OC)c(C)c1)C2` (stereo not shown) [Compound 16, N-Hexyl-6-(4-methoxy-3,5-dimethylphenyl)-5,6,7,8-tetrahydroimidazo[1,2-a]pyridine-2-carboxamide], 3.95 µM.
Compound `CCCCNC(=O)c1cn2c(n1)CCC(c1ccc(Oc3ccccc3)cc1)C2` (stereo not shown) [Compound 19, N-Butyl-6-(4-phenoxyphenyl)-5,6,7,8-tetrahydroimidazo[1,2-a]pyridine-2-carboxamide] returned an EC50 of 6.21 µM.
Same read-out and setting: to `CCOC(=O)C1CCN(C(=O)c2cn3c(n2)CCC(c2ccc(Oc4ccccc4)cc2)C3)CC1` (stereo not shown) [Compound 20, Ethyl 1-(6-(4-phenoxyphenyl)-5,6,7,8-tetrahydroimidazo[1,2-a]pyridine-2-carbonyl)piperidine-4-carboxylate] belongs 11.6 µM; to `CC1CCN(C(=O)c2cn3c(n2)CCC(c2ccc(Oc4ccccc4)cc2)C3)CC1` (stereo not shown) [Compound 21, (4-Methylpiperidin-1-yl)(6-(4-phenoxyphenyl)-5,6,7,8-tetrahydroimidazo[1,2-a]pyridin-2-yl)methanone], 8.4 µM.
Same read-out and setting: in the case of `CC(=O)N1CCN(C(=O)c2cn3c(n2)CCC(c2ccc(Oc4ccccc4)cc2)C3)CC1` (stereo not shown) [Compound 23, 1-(4-(6-(4-Phenoxyphenyl)-5,6,7,8-tetrahydroimidazo[1,2-a]pyridine-2-carbonyl)piperazin-1-yl)ethanone] it was 5.81 µM; in that of `O=C(NCc1cccnc1)c1cn2c(n1)CCC(c1ccc(Oc3ccccc3)cc1)C2` (stereo not shown) [Compound 24, 6-(4-Phenoxyphenyl)-N-(pyridin-3-ylmethyl)-5,6,7,8-tetrahydroimidazo[1,2-a]pyridine-2-carboxamide], 6.14 µM.
Compound `O=C(c1cn2c(n1)CCC(c1ccc(Oc3ccccc3)cc1)C2)N1CCCC1` (stereo not shown) [Compound 25, (6-(4-Phenoxyphenyl)-5,6,7,8-tetrahydroimidazo[1,2-a]pyridin-2-yl)(pyrrolidin-1-yl)methanone] yielded a half-maximal effective concentration (EC50) of 2.33 µM. Compared with the last compound, the EC50 is about 2.6-fold lower.

In general, EC50 refers to the midpoint of the concentration-response curve. A higher EC50 goes with lower potency in that assay.

Values taken from patent US8288424B2, “Substituted tetrahydroimidazopyridine compounds and the use thereof in the treatment of pain and other conditions” (Gruenenthal GmbH, priority 2008, dated 2012).
